Experimental data reported in ChEMBL document CHEMBL2086377, “Synthesis and functionalization of cyclic sulfonimidamides: a novel chiral heterocyclic carboxylic Acid bioisostere” (ACS Med Chem Lett, 2012).

Legend:
[1] = Octanol-buffer partition coefficient, log D of the compound after 30 mins by shake flask method at pH 7.4
[2] = Dissociation constant, pKa of the compound at 10 mM by pressure-assisted capillary electrophoretic/mass spectrometric analysis; type: physicochemical
[3] = Apparent permeability of the compound from apical to basal side of human Caco2 cells at 1 uM after 60 mins by LCMS analysis; type: ADME, cell-based; conditions: Caco-2
in vitro = conditions: human, Caco-2
Description: Efflux ratio of apparent permeability of the compound from basal to apical to apical to basal side of human Caco2 cells at 1 uM after 60 mins by LCMS analysis

SMILES	logD at 0.5 h [1]	pKa at 10000 µM [2]	Papp A→B at 1 h, 1 µM [3] [×10⁻⁶ cm/s]	efflux ratio at 1 h, 1 µM (in vitro)
Cc1ccc(-c2cccc(-c3nn[nH]n3)c2)cc1	1.3	4.1	–	–
C[C@@H]1N[S@](=O)(c2cccc(-c3cccc(C#N)c3)c2)=NC1=O	–	5.8	2.3	–
Cc1ccc(-c2cccc([S@]3(=O)=NC(=O)[C@H](C)N3)c2)cc1	–	6	66	–

Continued, values first:

logD at 0.5 h [1]	pKa at 10000 µM [2]	Papp A→B at 1 h, 1 µM [3] [×10⁻⁶ cm/s]	efflux ratio at 1 h, 1 µM (in vitro)	SMILES
0.7	4	< 0.3	255	N#Cc1cccc(-c2cccc(-c3nn[nH]n3)c2)c1
0.3	–	–	–	N#Cc1cccc(-c2cccc(C(=O)O)c2)c1
–	4	–	–	Cc1ccc(-c2cccc(C(=O)O)c2)cc1
